#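 Briefly, cells in 96-well plates were exposed to five compound concentrations for 48 h, and endpoints were estimated by linear interpolation. GI50 is the concentration that inhibits growth by half. TGI: total growth inhibition.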
# How the values were obtained:
# Test in all cases: NCI-60 cell line screen, 48 h
# [1] = tested on: NCI/ADR-RES ovarian
# [2] = tested on: SK-MEL-2 melanoma
# [3] = tested on: DU-145 prostate
# [4] = tested on: SF-295 CNS
# [5] = tested on: OVCAR-8 ovarian
# [6] = tested on: BT-549 breast
# [7] = tested on: SNB-75 CNS
# [8] = tested on: NCI-H522 lung
# [9] = tested on: SR leukemia
# [10] = tested on: NCI-H460 lung
# [11] = tested on: COLO 205 colon
# [12] = tested on: OVCAR-3 ovarian
# [13] = tested on: HCT-116 colon
# [14] = tested on: HS 578T breast
# [15] = tested on: TK-10 renal
# [16] = tested on: OVCAR-5 ovarian
# [17] = tested on: RXF 393 renal
# [18] = tested on: IGROV1 ovarian
# [19] = tested on: UO-31 renal
# [20] = tested on: 786-0 renal
# [21] = tested on: RPMI-8226 leukemia
# [22] = tested on: MCF7 breast
# [23] = tested on: A498 renal
# [24] = tested on: OVCAR-4 ovarian
# [25] = tested on: MOLT-4 leukemia
# [26] = tested on: M14 melanoma
# [27] = tested on: MDA-MB-435
# [28] = tested on: A549 NSCLC
# [29] = tested on: SK-OV-3 ovarian
# [30] = tested on: CCRF-CEM leukemia
# [31] = tested on: SF-268 CNS
# [32] = tested on: HT29 colon
# [33] = tested on: MDA-MB-231 breast
# [34] = tested on: NCI-H23 lung
# [35] = tested on: SF-539 CNS
# [36] = tested on: NCI-H226 lung
# [37] = tested on: HCT-15 colon
# [38] = tested on: HCC-2998 colon
# [39] = tested on: U251 CNS
# [40] = tested on: PC-3 prostate
# [41] = tested on: KM12 colon
# [42] = tested on: EKVX NSCLC
# [43] = tested on: HL-60(TB) leukemia
# [44] = tested on: HOP-62 NSCLC
# [45] = tested on: UACC-257 melanoma
# [46] = tested on: SW-620 colon
# [47] = tested on: MALME-3M melanoma
# [48] = tested on: SN12C renal
# [49] = tested on: UACC-62 melanoma
# [50] = tested on: SK-MEL-5 melanoma
# [51] = tested on: SNB-19 CNS
# [52] = tested on: CAKI-1 renal
# [53] = tested on: SK-MEL-28 melanoma
# [54] = tested on: HOP-92 NSCLC
# [55] = tested on: K-562 leukemia
# [56] = tested on: LOX IMVI melanoma
# [57] = tested on: T-47D breast
# [58] = tested on: ACHN renal
smiles,measurement,setting,value
COc1ccc(C(C)=C(c2ccc(OCCN(C)C)cc2)c2ccc(OCCN(C)C)cc2)cc1,GI50,[1],1340 nM
same,TGI,[1],4680 nM
same,GI50,[2],588 nM
same,TGI,[2],1390 nM
same,GI50,[3],1810 nM
same,TGI,[3],5180 nM
same,GI50,[4],510 nM
same,TGI,[4],1180 nM
same,GI50,[5],1170 nM
same,TGI,[5],4540 nM
same,GI50,[6],1850 nM
same,TGI,[6],5240 nM
same,GI50,[7],2280 nM
same,TGI,[7],5950 nM
same,GI50,[8],866 nM
same,TGI,[8],3620 nM
same,GI50,[9],321 nM
same,TGI,[9],941 nM
same,GI50,[10],828 nM
same,TGI,[10],2940 nM
same,GI50,[11],432 nM
same,TGI,[11],908 nM
same,GI50,[12],585 nM
same,TGI,[12],1790 nM
same,GI50,[13],415 nM
same,TGI,[13],2450 nM
same,GI50,[14],884 nM
same,TGI,[14],4250 nM
same,GI50,[15],3310 nM
same,TGI,[15],6860 nM
same,GI50,[16],1720 nM
same,TGI,[16],5010 nM
same,GI50,[17],381 nM
same,TGI,[17],934 nM
same,GI50,[18],1100 nM
same,TGI,[18],3920 nM
same,GI50,[19],804 nM
same,TGI,[19],2110 nM
same,GI50,[20],445 nM
same,TGI,[20],1100 nM
same,GI50,[21],584 nM
same,TGI,[21],1510 nM
same,GI50,[22],243 nM
same,TGI,[22],889 nM
same,GI50,[23],1130 nM
same,TGI,[23],4150 nM
same,GI50,[24],865 nM
same,TGI,[24],3250 nM
same,GI50,[25],544 nM
same,TGI,[25],1610 nM
same,GI50,[26],427 nM
same,TGI,[26],824 nM
same,GI50,[27],507 nM
same,TGI,[27],1130 nM
same,GI50,[28],1030 nM
same,TGI,[28],4480 nM
same,GI50,[29],3910 nM
same,TGI,[29],7510 nM
same,GI50,[30],624 nM
same,TGI,[30],2360 nM
same,GI50,[31],1110 nM
same,TGI,[31],4350 nM
same,GI50,[32],490 nM
same,TGI,[32],1630 nM
same,GI50,[33],684 nM
same,TGI,[33],2290 nM
same,GI50,[34],2950 nM
same,TGI,[34],6530 nM
same,GI50,[35],468 nM
same,TGI,[35],948 nM
same,GI50,[36],3030 nM
same,TGI,[36],6890 nM
same,GI50,[37],582 nM
same,TGI,[37],2050 nM
same,GI50,[38],858 nM
same,TGI,[38],3490 nM
same,GI50,[39],679 nM
same,TGI,[39],2610 nM
same,GI50,[40],1360 nM
same,TGI,[40],4810 nM
same,GI50,[41],1070 nM
same,TGI,[41],4210 nM
same,GI50,[42],1650 nM
same,TGI,[42],5250 nM
same,GI50,[43],477 nM
same,TGI,[43],999 nM
same,GI50,[44],1360 nM
same,TGI,[44],3420 nM
same,GI50,[45],469 nM
same,TGI,[45],957 nM
same,GI50,[46],639 nM
same,TGI,[46],2220 nM
same,GI50,[47],439 nM
same,TGI,[47],893 nM
same,GI50,[48],2000 nM
same,TGI,[48],6090 nM
same,GI50,[49],533 nM
same,TGI,[49],1250 nM
same,GI50,[50],432 nM
same,TGI,[50],794 nM
same,GI50,[51],1330 nM
same,TGI,[51],4860 nM
same,GI50,[52],647 nM
same,TGI,[52],2310 nM
same,GI50,[53],464 nM
same,TGI,[53],904 nM
same,GI50,[54],633 nM
same,TGI,[54],3170 nM
same,GI50,[55],395 nM
same,TGI,[55],918 nM
same,GI50,[56],343 nM
same,TGI,[56],741 nM
same,GI50,[57],374 nM
same,TGI,[57],966 nM
same,GI50,[58],763 nM
same,TGI,[58],2510 nM

# Reference: PubChem BioAssay (NCI)
